Entries after “also recorded” stand apart in the source; their conditions may differ.

Three compounds from patent US9228020B2, “Compositions and methods for diagnosing and treating cancer” (OncoMed Pharmaceuticals, Inc., priority 2006, dated 2016) can be followed below.

Assay [1] deals with C8 cells. Put plainly: Established C8 colon tumors, combination with Irinotecan. The assay is classed as in vivo, NOD/SCID mice. Conditions: treatment from approximately 60 mm^3; 21M18 10 mg/kg two times per week; Irinotecan 7.5 mg/kg one time per week. On the procedure: In some embodiments, combination anti-DLL4 murine 21M18 and Irinotecan treatment was used to treat established colon tumors. Dissociated C8 cells (10,000 per animal) were injected subcutaneously into the right flank region of 6-8 week old NOD/SCID mice. When the injected cells produced tumors of approximately 60 mm^3, treatment was commenced. Animals were injected intraperitoneal (i.p.) with 10 mg/kg murine 21M18 anti-DLL4 antibodies or a control two times per week for the duration of the experiment with or without concurrent treatment with the chemotherapy agent Irinotecan administered one time per week at a dosage of 7.5 mg/kg.

The test system of assay [2] is OMP-C8 tumor cells. Briefly: OMP-C8 colon tumor xenograft growth prevention, combination with Irinotecan. In kind it is in vivo, NOD/SCID mice. Conditions: 21M18 10 mg/kg twice per week; Irinotecan 7.5 mg/kg weekly; n=10 per group. On the procedure: In certain embodiments, anti-DLL4 antibodies were tested in combination with the chemotherapeutic Irinotecan. In some embodiments, dissociated OMP-C8 tumor cells (10,000 per animal) were injected subcutaneously into the right flank region of 6-8 week old NOD/SCID mice. The day after tumor cell injection, animals were injected intraperitoneal (i.p.) with 10 mg/kg murine 21M18 anti-DLL4 antibodies or control antibody two times per week for the duration of the experiment with or without concurrent treatment with the chemotherapy agent Irinotecan administered one time per week at a dosage of 7.5 mg/kg. Tumor growth was monitored weekly until growth was detected, after which point tumor growth was measured twice weekly. […] In certain embodiments, humanized H7L2 21M18 anti-DLL4 antibodies were tested in combination with Irinotecan. In some embodiments, dissociated C8 tumor cells (10,000 per animal) were injected subcutaneously into the right flank region of 6-8 week old NOD/SCID mice. […] Tumor growth was monitored weekly until growth was detected, after which point tumor growth was measured twice weekly.

The test system of assay [3] is UM-C4 colon tumor cells. Put plainly: UM-C4 xenograft, combination with fluorouracil. Conditions: day 46. In kind it is in vivo, NOD/SCID mice. On the procedure: In certain embodiments, anti-DLL4 antibodies were analyzed in combination with chemotherapy for the ability to reduce growth of UM-C4 colon tumor cells in vivo. Dissociated UM-C4 cells (10,000 per animal) were injected subcutaneously into the right flank region of 6-8 week old NOD/SCID mice. The day after tumor cell injection, animals were injected intraperitoneal (i.p.) with 10 mg/kg murine 21M18 anti-DLL4 antibodies or PBS two times per week for the duration of the experiment with or without concurrent treatment with the anti-metabolite chemotherapy agent fluorouracil (5-FU) administered one time per week. Tumor growth was monitored weekly until growth was detected, after which point tumor growth was measured twice weekly for a total of 8 weeks.

For assay [4], the target named is human DLL4 (Homo sapiens, UniProt Q9NR61). Put plainly: OMP-C11 tumor cell colonies overlaid with 3T3-DLL4 cells, HES1:ATOH1 expression. The assay is classed as cell-based. Details: expressed in transfected cells; host or cells: 3T3 cells. Conditions: 5 μM. Here is the method: In some embodiments, mouse lineage-depleted OMP-C11 tumor cell colonies were established using culture conditions known to maintain tumorigenic cells in vitro. These tumor cell colonies were overlaid with 3T3 cells without (3T3) or including human DLL4 (DLL4) overexpressed on the cell surface in the presence or absence of 10 μg/mL murine 21M18 or 5 μM gamma-secretase inhibitor (GSI; i.e. DBZ). A no overlay control was also included.
human DLL4, sequence (Q9NR61 27-685): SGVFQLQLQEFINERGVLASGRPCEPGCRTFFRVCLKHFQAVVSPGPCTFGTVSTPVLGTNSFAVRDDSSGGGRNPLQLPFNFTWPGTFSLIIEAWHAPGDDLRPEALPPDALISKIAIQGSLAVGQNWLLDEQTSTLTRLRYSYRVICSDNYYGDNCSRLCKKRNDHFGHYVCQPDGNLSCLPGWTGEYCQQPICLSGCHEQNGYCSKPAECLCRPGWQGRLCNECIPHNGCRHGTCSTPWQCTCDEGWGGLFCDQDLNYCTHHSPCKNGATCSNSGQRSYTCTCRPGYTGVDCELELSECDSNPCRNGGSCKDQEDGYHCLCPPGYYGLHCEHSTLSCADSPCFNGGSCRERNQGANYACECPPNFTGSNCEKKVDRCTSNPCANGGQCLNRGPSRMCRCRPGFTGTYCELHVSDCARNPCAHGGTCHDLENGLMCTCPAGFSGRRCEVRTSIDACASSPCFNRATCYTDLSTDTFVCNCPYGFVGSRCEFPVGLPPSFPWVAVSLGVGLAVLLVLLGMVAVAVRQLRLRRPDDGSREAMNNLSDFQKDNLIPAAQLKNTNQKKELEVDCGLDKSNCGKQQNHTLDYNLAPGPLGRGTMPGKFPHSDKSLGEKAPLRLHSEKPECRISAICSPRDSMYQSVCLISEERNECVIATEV

With `CCc1c2c(nc3ccc(OC(=O)N4CCC(N5CCCCC5)CC4)cc13)-c1cc3c(c(=O)n1C2)COC(=O)[C@]3(O)CC` [Irinotecan], the “growth of established colon tumors” value in assay [1] is listed as “reduced tumor volume”. In addition, the “tumor growth after treatment cessation on day 56” value in assay [2] is “tumor growth continued or accelerated in most animals; also recorded: growth continued after cessation of treatment on day 56 (* arrow) in all but two treated animals”.
As for `O=c1[nH]cc(F)c(=O)[nH]1` [5-FU, fluorouracil, reference compound], the “tumor size compared to control” value in assay [3] was “reduced tumor size”.
For the compound `C[C@H](NC(=O)Cc1cc(F)cc(F)c1)C(=O)N[C@@H]1C(=O)N(C)c2ccccc2-c2ccccc21` [GSI, reference compound], the “DLL4-induced Notch target gene changes (ratio of HES1:ATOH1)” value in assay [4] is on record as “inhibited DLL4-induced Notch target gene changes”.
